Test results published in patent US10738041B2, “Ferroportin inhibitors” (Vifor (International) AG, priority 2015, dated 2020).
Where “and” joins values, the source holds several entries; their conditions need not be identical. Equal entries are not always repeated. Structures can show the parent of a compound that is named as a salt.

Tests used:
[1] = molecular target: T1, ferroportin (Fpn) (Mus musculus, UniProt Q9JHI9); test: Hepcidin Internalization Assay (J774); type: cell-based; conditions: average of multiple measurements; inhibition of TMR-hepcidin (25 nM) internalization into J774 cells; read-out: J774 IC50
T1 construct: host or cells: J774 mouse macrophage cell line, Fe(III)-NTA induced
T1 sequence (Q9JHI9 1-570): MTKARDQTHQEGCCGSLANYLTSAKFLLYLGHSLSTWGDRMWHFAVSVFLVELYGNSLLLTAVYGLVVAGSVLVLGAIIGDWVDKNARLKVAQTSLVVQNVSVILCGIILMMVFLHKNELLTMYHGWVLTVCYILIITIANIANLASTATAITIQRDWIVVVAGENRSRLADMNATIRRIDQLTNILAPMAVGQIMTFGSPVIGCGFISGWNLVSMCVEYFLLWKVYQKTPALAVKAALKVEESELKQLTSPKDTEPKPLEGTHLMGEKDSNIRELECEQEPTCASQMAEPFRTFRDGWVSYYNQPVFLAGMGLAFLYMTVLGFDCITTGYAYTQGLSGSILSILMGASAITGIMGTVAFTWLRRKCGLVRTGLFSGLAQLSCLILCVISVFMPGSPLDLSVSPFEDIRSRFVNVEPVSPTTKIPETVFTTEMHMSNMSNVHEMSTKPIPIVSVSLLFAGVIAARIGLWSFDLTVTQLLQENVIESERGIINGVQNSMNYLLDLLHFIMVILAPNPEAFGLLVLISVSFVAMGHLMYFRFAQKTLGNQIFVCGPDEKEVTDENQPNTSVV
Procedure, shortened: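 Inhibition of fluorescent TMR-hepcidin uptake via ferroportin was imaged in fixed J774 cells after a 2 h, 37 °C co-incubation with compound dilutions; cells were pre-cultured overnight with 200 μM Fe(III)NTA. Internalized TMR signal per cell (Sum(Mean)) was fitted as log(inhibitor) vs. response for IC50, in triplicate.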

[2] = molecular target: T2, human Fpn-GFP fusion (Homo sapiens, UniProt Q9NP59); test: Ferroportin Internalization and Degradation Assay (FACS); type: cell-based; conditions: average of multiple measurements, Fpn-GFP MFI, HEK-293 cell line #354, FACS; for DC50: read-out: EC50 ferroportin internalization and degradation
T2 construct: expressed in transfected cells; host or cells: HEK-293 cell line #354 (derivative of HEK-293 Tet-ON Advanced, Clontech)
T2 sequence (Q9NP59 1-571): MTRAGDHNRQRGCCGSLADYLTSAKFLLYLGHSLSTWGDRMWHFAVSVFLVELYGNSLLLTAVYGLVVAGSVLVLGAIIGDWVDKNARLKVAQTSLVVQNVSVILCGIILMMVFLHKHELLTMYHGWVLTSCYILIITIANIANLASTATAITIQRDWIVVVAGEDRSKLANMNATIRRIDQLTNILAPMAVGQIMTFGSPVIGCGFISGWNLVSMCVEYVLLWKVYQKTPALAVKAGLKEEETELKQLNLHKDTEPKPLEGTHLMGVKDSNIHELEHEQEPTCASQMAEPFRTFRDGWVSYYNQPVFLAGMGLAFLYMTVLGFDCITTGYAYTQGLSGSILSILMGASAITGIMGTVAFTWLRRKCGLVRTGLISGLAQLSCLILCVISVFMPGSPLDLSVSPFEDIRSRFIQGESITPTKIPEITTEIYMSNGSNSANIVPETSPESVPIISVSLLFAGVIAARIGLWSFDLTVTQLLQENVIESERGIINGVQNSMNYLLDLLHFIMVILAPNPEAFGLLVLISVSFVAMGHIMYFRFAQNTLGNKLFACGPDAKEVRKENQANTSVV
Experimental: Growing HEK-293 #354 cells in doxycycline containing media induced expression of human Fpn-GFP fusion protein on the cell surface. […] Small molecular weight Fpn inhibitor compounds were tested for dose-dependent effects on the Fpn-GFP mean fluorescence intensity (MFI) on HEK-293 cell line #354, as described below. HEK #354 cells were harvested from ca. 80% confluent cultures, seeded at 0.6×10^6 (cells/ml in DMEM/F12 GlutaMAX™ medium (Invitrogen, Cat. 31331-028) containing 10% FBS (Clontech, Cat. 631106), 1% Penicillin-Streptomycin (Invitrogen, Cat. 15140-122), 200 μg/ml Hygromycin B (Invitrogen, Cat. 10687-010), Blasticidin 5 μg/ml, (Invitrogen, Cat. R210-01), 4 μg/ml doxycycline (Clontech, Cat. 631311), 50 μl per well of 384 well plates (Greiner; Cat. 781091) and grown at 37° C. with 5% CQ. After overnight incubation, 10 μl/well of dilution series of the test compounds were added in quadruplicates and plates were further incubated overnight at 37° C. with 5% CO2. Cells were washed once with FACS buffer (PBS containing 1% FBS, 2 mM EDTA and 0.05% NaN3), harvested in FACS buffer with 0.5 μg/ml propidium iodide (Sigma, Cat. P4864) and analyzed in a flow cytometer (CANTO™ II, BD Biosciences) equipped with high throughput sampler. Live HEK #354 cells were gated as propidium iodide negative population and analyzed for expression of Fpn-GFP.

[3] = molecular target: T3, human Fpn (Homo sapiens, UniProt Q9NP59); test: Biophysical Ferroportin-Hepcidin Binding Assay (fluorescence polarization); conditions: average of multiple measurements; 1 μM human Fpn, 20 nM TMR-hepcidin; read-out: FP IC50
T3 construct: FLAG (C); made in house; host or cells: Pichia pastoris
T3 sequence (Q9NP59 1-571): T2 sequence (Q9NP59 1-571)
Procedure, shortened: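 FP readout: a dose-dependent drop in TMR-hepcidin polarization (mP, from parallel and perpendicular emission) marked blocked binding to FLAG-tagged human Fpn purified from Pichia pastoris. Final levels were 1 μM Fpn and 20 nM TMR-hepcidin, with compound dilutions in duplicate, incubated 90 min at room temperature.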

IC50 [1]	EC50 [2]	IC50 [3]	DC50 [2]	Compound
3.11 µM	–	1.3 µM	25.3 µM	O=C(NCc1ncccc1F)c1cccc(CCNCCc2nc3ccccc3[nH]2)n1 [Example 146]
9.7 µM	> 25 µM and < 50 µM	9 µM	–	O=C(Cn1cc(C(=O)NCc2ncccc2F)cn1)NCCc1nc2ccccc2[nH]1 [Example 117]
–	4.14 µM	–	–	O=C(NCc1ncccc1F)c1csc([C@H]2[C@@H]3CN(Cc4nc5ccccc5[nH]4)C[C@@H]32)n1 [Example Compound No. 213, 2-[(1R,5S,6S)-3-(1H-1,3-Benzodiazol-2-ylmethyl)-3-azabicyclo[3.1.0]hexan-6-yl]-N-[(3-fluoropyridin-2-yl)methyl]-1,3-thiazole-4-carboxamide Trihydrochloride]
3.73 µM	> 20 µM and < 50 µM	6.9 µM	–	O=C(NCc1ncccc1F)c1csc(CCNCc2cccc3nc[nH]c23)n1 [Example 140]
4.56 µM	–	2.5 µM	20.7 µM	O=C(NCc1ncccc1F)c1cccc(CCNCc2nc3ccccc3[nH]2)n1 [Example 133]
4.79 µM	> 20 µM and < 50 µM	63.1 µM	–	O=C(NCc1ncccc1F)c1csc(CCNCc2ccc3nc[nH]c3c2)n1 [Example 139]
2.23 µM	–	2.9 µM	14.4 µM	O=C(NCC1CCCCN1)c1csc(CCNCc2nc3ccccc3[nH]2)n1 (stereo not shown) [Example 185]
3.41 µM	21.2 µM	36.9 µM	–	O=C(NCc1ncccc1F)c1csc(CCCNc2nc3ccccc3[nH]2)n1 [Example 135]
0.533 µM	–	0.56 µM	0.813 µM	O=C(NCc1ncccc1F)c1cccc(CCN(CCc2nc3ccccc3[nH]2)CCc2nc3ccccc3[nH]2)n1 [Example 147]
> 10.5 µM	17.9 µM	6.85 µM	–	O=C(NCc1ncccc1F)c1cnn(C2CN(Cc3nc4ccccc4[nH]3)C2)c1 [Example 136]
0.5 µM	–	0.49 µM	4.66 µM	O=C(NCc1ccccc1)c1csc(CCNCc2nc3ccccc3[nH]2)n1 [Example 1]

Compound	IC50 [1]	EC50 [2]	IC50 [3]	DC50 [2]
O=C(NCc1ncccc1F)c1csc(CCN(Cc2nc3ccccc3[nH]2)Cc2nc3ccccc3[nH]2)n1 [Example 166]	1.12 µM	> 20 µM and < 50 µM	0.37 µM	–
